Patent US10597380B2, “Pyridazinone-based broad spectrum anti-influenza inhibitors” (Hoffmann-La Roche Inc., priority 2017, dated 2020)

These compounds were tested on Influenza A/WSN/33-Luciferase virus (assay: microbe, parasite or virus in culture). Conditions: A549, 72 h, luciferase signal three days later, read-out: IC50 antiviral activity (Luciferase reporter assay).
Assay type: cell-based
For `O=C(O)COCCn1cccc(Nc2nn(-c3ccc(OC(F)(F)F)cc3)c(=O)c3ccccc23)c1=O` [Example 112, 2-[2-[2-oxo-3-[[4-oxo-3-[4-(trifluoromethoxy)phenyl]phthalazin-1-yl]amino]-1-pyridyl]ethoxy]acetic acid], the IC50 was 2990 nM. `Cn1cccc(Nc2nn(-c3ccc(OC(F)(F)F)cc3)c(=O)c3c2CC(O)CC3)c1=O` (stereo not drawn) [Example 165, 6-hydroxy-4-[(1-methyl-2-oxo-3-pyridyl)amino]-2-[4-(trifluoromethoxy)phenyl]-5,6,7,8-tetrahydrophthalazin-1-one] gave an IC50 of 24 nM. `COCCCNC(=O)Cn1cccc(Nc2nn(-c3ccc(OC(F)(F)F)cc3)c(=O)c3ccccc23)c1=O` [Example 94, N-(3-methoxypropyl)-2-[2-oxo-3-[[4-oxo-3-[4-(trifluoromethoxy)phenyl]phthalazin-1-yl]amino]-1-pyridyl]acetamide] was tested, and the IC50 was 45 nM. In the case of `CN1CCN(CCCn2cccc(Nc3nn(-c4ccc(OC(F)(F)F)cc4)c(=O)c4c3CCC4)c2=O)CC1` [Example 48, 1-[[1-[3-(4-methylpiperazin-1-yl)propyl]-2-oxo-3-pyridyl]amino]-3-[4-(trifluoromethoxy)phenyl]-6,7-dihydro-5H-cyclopenta[d]pyridazin-4-one], the IC50 is reported as 18 nM. Compound `COC(=O)CCCn1cccc(Nc2nn(-c3ccc(OC(F)(F)F)cc3)c(=O)c3c2CCC3)c1=O` [Example 38, methyl 4-[2-oxo-3-[[4-oxo-3-[4-(trifluoromethoxy)phenyl]-6,7-dihydro-5H-cyclopenta[d]pyridazin-1-yl]amino]-1-pyridyl]butanoate] has an IC50 of 23 nM. `Cn1cc(C(F)(F)F)cc(Nc2nn(-c3ccc(OC(F)(F)F)cc3)c(=O)c3c2CCC3)c1=O` [Example 34, 1-[[1-methyl-2-oxo-5-(trifluoromethyl)-3-pyridyl]amino]-3-[4-(trifluoromethoxy)phenyl]-6,7-dihydro-5H-cyclopenta[d]pyridazin-4-one] gave an IC50 of 195 nM. Compound `N[C@H]1CO[C@H](Cn2cccc(Nc3nn(-c4ccc(OC(F)(F)F)cc4)c(=O)c4c3CCC4)c2=O)OC1` [Example 170, trans-1-[[1-[(5-Amino-1,3-dioxan-2-yl)methyl]-2-oxo-3-pyridyl]amino]-3-[4-(trifluoromethoxy)phenyl]-6,7-dihydro-5H-cyclopenta[d]pyridazin-4-one] has an IC50 of 83 nM. `COc1ccc(-n2nc(Nc3cccn(C)c3=O)c3c(c2=O)CCC3)cn1` [Example 56, 3-(6-methoxy-3-pyridyl)-1-[(1-methyl-2-oxo-3-pyridyl)amino]-6,7-dihydro-5H-cyclopenta[d]pyridazin-4-one] gave an IC50 of 278 nM. Work on `Cn1cccc(Nc2nn(-c3ccc(OC(F)(F)F)cc3)c(=O)c3c(F)cccc23)c1=O` [Example 17, 8-fluoro-4-[(1-methyl-2-oxo-3-pyridyl)amino]-2-[4-(trifluoromethoxy)phenyl]phthalazin-1-one] yielded an IC50 of 100 nM. For `O=c1c(Nc2nn(-c3ccc(OC(F)(F)F)cc3)c(=O)c3c2CCC3)cccn1CC1CCCN1` (stereo not drawn) [Example 131, 1-[[2-Oxo-1-(pyrrolidin-2-ylmethyl)-3-pyridyl]amino]-3-[4-(trifluoromethoxy)phenyl]-6,7-dihydro-5H-cyclopenta[d]pyridazin-4-one], the IC50 was 30 nM. For `COCCOc1cccc2c(=O)n(-c3ccc(OC(F)(F)F)cc3)nc(Nc3cccn(C)c3=O)c12` [Example 138, 5-(2-Methoxyethoxy)-4-[(1-methyl-2-oxo-3-pyridyl)amino]-2-[4-(trifluoromethoxy)phenyl]phthalazin-1-one], the IC50 was 110 nM. Compound `O=C(O)[C@@H]1CCCN1CCn1cccc(Nc2nn(-c3ccc(OC(F)(F)F)cc3)c(=O)c3ccccc23)c1=O` [Example 115, (2S)-1-[2-[2-oxo-3-[[4-oxo-3-[4-(trifluoromethoxy)phenyl]phthalazin-1-yl]amino]-1-pyridyl]ethyl]pyrrolidine-2-carboxylic acid] has an IC50 of 180 nM. `Cn1cncc(Nc2nn(-c3ccc(OC(F)(F)F)cc3)c(=O)c3c2CCCC3)c1=O` [Example 22, 4-[(1-methyl-6-oxo-pyrimidin-5-yl)amino]-2-[4-(trifluoromethoxy)phenyl]-5,6,7,8-tetrahydrophthalazin-1-one] showed an IC50 of 16 nM. In the case of `CCc1ccc2c(Nc3cccn(C)c3=O)nn(-c3ccc(C(C)(C)C)cc3)c(=O)c2c1` [Example 20, 2-(4-tert-butylphenyl)-7-ethyl-4-[(1-methyl-2-oxo-3-pyridyl)amino]phthalazin-1-one], the IC50 is reported as 4 nM. With `CCc1ccc2c(=O)n(-c3ccc(OC(F)(F)F)cc3)nc(Nc3cccn(C)c3=O)c2c1` [Example 81, 6-ethyl-4-[(1-methyl-2-oxo-3-pyridyl)amino]-2-[4-(trifluoromethoxy)phenyl]phthalazin-1-one] the IC50 was 465 nM. `Cn1cccc(Nc2nn(-c3ccc(OC(F)(F)F)cc3)c(=O)c3ccccc23)c1=O` [Example 1, 4-[(1-methyl-2-oxo-3-pyridyl)amino]-2-[4-(trifluoromethoxy)phenyl]phthalazin-1-one] gave an IC50 of 22 nM. `COC(=O)N1CCc2c(c(Nc3cccn(C)c3=O)nn(-c3ccc(OC(F)(F)F)cc3)c2=O)C1` [Example 152, Methyl 4-[(1-methyl-2-oxo-3-pyridyl)amino]-1-oxo-2-[4-(trifluoromethoxy)phenyl]-7,8-dihydro-5H-pyrido[3,4-d]pyridazine-6-carboxylate] showed an IC50 of 32 nM. For `CCOc1ccc(-n2nc(Nc3cccn(C)c3=O)c3c(c2=O)CCC3)cn1` [Example 55, 3-(6-ethoxy-3-pyridyl)-1-[(1-methyl-2-oxo-3-pyridyl)amino]-6,7-dihydro-5H-cyclopenta[d]pyridazin-4-one], the IC50 was 303 nM. With `CNC(=O)Cn1cccc(Nc2nn(-c3ccc(OC(F)(F)F)cc3)c(=O)c3ccccc23)c1=O` [Example 91, N-methyl-2-[2-oxo-3-[[4-oxo-3-[4-(trifluoromethoxy)phenyl]phthalazin-1-yl]amino]-1-pyridyl]acetamide] the IC50 was 41 nM. `O=C(O)CCCn1cncc(Nc2nn(-c3ccc(OC(F)(F)F)cc3)c(=O)c3c2CCC3)c1=O` [Example 124, 4-[6-oxo-5-[[4-oxo-3-[4-(trifluoromethoxy)phenyl]-6,7-dihydro-5H-cyclopenta[d]pyridazin-1-yl]amino]pyrimidin-1-yl]butanoic acid] was tested, and the IC50 was 4930 nM. `COCCOc1ccc(-n2nc(Nc3cccn(C)c3=O)c3ccccc3c2=O)cc1` [Example 13, 2-[4-(2-methoxyethoxy)phenyl]-4-[(1-methyl-2-oxo-3-pyridyl)amino]phthalazin-1-one] was tested, and the IC50 was 1510 nM. `CC(C)(C)OC(=O)NCCn1cccc(Nc2nn(-c3ccc(OC(F)(F)F)cc3)c(=O)c3c2CCC3)c1=O` [Example 45, tert-butyl N-[2-[2-oxo-3-[[4-oxo-3-[4-(trifluoromethoxy)phenyl]-6,7-dihydro-5H-cyclopenta[d]pyridazin-1-yl]amino]-1-pyridyl]ethyl]carbamate] showed an IC50 of 286 nM. `O=C(O)C1COCCN1CCn1cccc(Nc2nn(-c3ccc(OC(F)(F)F)cc3)c(=O)c3c2CCC3)c1=O` (stereo not drawn) [Example 123, 4-[2-[2-oxo-3-[[4-oxo-3-[4-(trifluoromethoxy)phenyl]-6,7-dihydro-5H-cyclopenta[d]pyridazin-1-yl]amino]-1-pyridyl]ethyl]morpholine-3-carboxylic acid] showed an IC50 of 485 nM. `CN(C)CCn1cccc(Nc2nn(-c3ccc(OC(F)(F)F)cc3)c(=O)c3ccccc23)c1=O` [Example 70, 4-[[1-[2-(dimethylamino)ethyl]-2-oxo-3-pyridyl]amino]-2-[4-(trifluoromethoxy)phenyl]phthalazin-1-one] showed an IC50 of 19 nM.
